One assay has as its target T1, AQ STING (G230A-R293Q) (Homo sapiens, UniProt Q86WV6, G230A/H232R/R293Q).
T1 construct: truncated human WT STING or AQ STING (amino acid residues 140-343); 8xHis (N, cleaved yes); SUMO (N, cleaved yes); made in house; host or cells: E. coli Rosetta-gami B (DE3)
The assay can be described thus: Differential Scanning Fluorimetry with AQ STING. The assay is classed as binding. Conditions: thermal shift vs STING apoprotein; 150 μM CDN; 0.1 mg/ml truncated human AQ STING; SYPRO Orange; read-out: DSF ΔTm (° C.) AQ STING. How it is done:
(§1) WT STING and AQ STING Proteins
(§2) Purified PCR products were cleaved with restriction enzymes BamHI (cat. #R0136S, NEB, Ipswich, USA) and NotI (cat. #R0189S, NEB, Ipswich, USA) and cloned into the pSUMO vector linearized with the identical enzymes.
(§3) The resin was poured into a chromatography column, washed with 50 ml buffer A (50 mmol·l^−1 TrisCl (pH 8.0), 800 mmol·l^−1 NaCl, 3 mmol·l^−1 β-mercaptol; 10% glycerol; 20 mmol·l^−1 imidazole) and 8-His-SUMO tagged STING proteins were eluted with 15 ml buffer A containing 300 mmol·l^−1 imidazole. […] Proteins were concentrated with Amicon® Ultra-15 10 K device (cat. #UFC901008, Merck Millipore, Billerica, USA) and flash frozen in liquid N2.
(§4) Differential Scanning Fluorimetry with WT STING and AQ STING
(§5) 20 μL solutions of the reaction mixtures were pipetted in triplicates into 96 well optical reaction plates and thermal denaturation of samples were performed on real time PCR cycler (LightCycler® 480 Instrument II—Roche, Basel, Switzerland). The first derivative of the thermal denaturation curves was performed to calculate denaturing temperatures of STING—CDN complexes and STING apoproteins. The thermal shift for each CDN was calculated by subtracting the average denaturing temperature of STING apoprotein from the average denaturing temperature of STING CDN complex.
A general note: Differential scanning fluorimetry follows unfolding on heating by fluorescence.

Assay [1] deals with T2, WT STING (Homo sapiens, UniProt Q86WV6, H232R). The assay can be described thus: Digitonin assay using 293T wtSTING-FL reporter cells. Conditions: 293T wtSTING-FL cells; 30 minutes in Digitonin buffer, then 5 hours; ISRE firefly luciferase reporter; 8-point dose-response curve; read-out: Digitonin assay EC50 (μmol · l^−1) WT STING. Type of assay: cell-based. The source says:
ISRE Reporter Plasmid (pGL64.27-4xISRE)
Two complementary oligonucleotides of the sequence […] […] […] […] […] The oligonucleotides were mixed in equal molar amounts, hybridized, and cleaved by restriction endonucleases HindIII (cat. #. R0104S, NEB, Ipswich, USA) and BglII (cat. #R0144S, NEB, Ipswich, USA). Ultimately, they were ligated into plasmid pGL4.27 (cat. #E6651, Promega, Madison, USA) linearized with the same enzymes. As result the sequence with four ISRE sites was placed upstream of the minimum promoter of firefly luciferase reporter gene.
After 5 minutes incubation at room temperature (RT), 250 μL of the mixture was added dropwise to the cells in one well. Cells were incubated 36 hours at 37° C. with 5% CO2, and then detached with 0.05% Trypsin and 0.22 g/L EDTA (both cat. #L0941, Biowest, Riverside, USA).
Transfected cells were seeded onto poly-D-lysine coated six well plates at density 50,000 cells per 1 cm^2 in DMEM medium with high glucose containing 10% heat inactivated FBS, 30 g/mL blasticidin (cat. #ant-bl-05, InvivoGen, San Diego, USA), 0.06 mg/ml Penicillin G and 0.1 mg/ml Streptomycin Sulfate (both cat. #. L0018, Biowest, Riverside, USA). The medium was replenished every 3-4 days until visible colonies of cells resistant to blasticidin were formed.
Blasticidin resistant cells stably expressing WT STING were further transfected with […] plasmid following the same procedure as described above. […] Homogeneous culture of stably double transfected cells was prepared by limiting dilution of cells in 96 well plates and wells with cells were selected that originated from a single cell.
The medium was removed next day and three fold serial dilutions of compounds in Digitonin buffer containing 50 mmol·l^−1 HEPES (cat. #H3375, Sigma Aldrich, Czech Republic) pH 7.0, 100 mmol·l^−1 KCl, 3 mmol·l^−1 MgCl2, 0.1 mmol·l^−1 DTT (cat. #D0632, Sigma Aldrich, Czech Republic), 85 mmol·l^−1 Sucrose (cat. #S7903, Sigma Aldrich, Czech Republic), 0.2% BSA (cat. #A2153, Sigma Aldrich, Czech Republic), 1 mmol·l^−1 ATP (cat. #A1852, Sigma Aldrich, Czech Republic), 0.1 mmol·l^−1 GTP (cat. #G8877, Sigma Aldrich, Czech Republic), and 10 μg/mL Digitonin A (cat. #D141, Sigma Aldrich, Czech Republic) were added to the cells. The buffer was removed after 30 minutes incubation at 37° C. with 5% CO2, the cells were washed once with 100 μl of cultivation medium, and 100 μl of medium was added to each well. The plates with cells were incubated for 5 hours at 37° C. with 5% CO2, 50 μl of the medium was removed and 30 μl of ONE-Glo™ Luciferase Assay System reagent (cat. #E6120, Promega, Madison, USA) was added to each well. Luminescence was read on Synergy H1 (Biotek, Winooski, USA).
Target sequence in this assay (Q86WV6 whole entry H232R): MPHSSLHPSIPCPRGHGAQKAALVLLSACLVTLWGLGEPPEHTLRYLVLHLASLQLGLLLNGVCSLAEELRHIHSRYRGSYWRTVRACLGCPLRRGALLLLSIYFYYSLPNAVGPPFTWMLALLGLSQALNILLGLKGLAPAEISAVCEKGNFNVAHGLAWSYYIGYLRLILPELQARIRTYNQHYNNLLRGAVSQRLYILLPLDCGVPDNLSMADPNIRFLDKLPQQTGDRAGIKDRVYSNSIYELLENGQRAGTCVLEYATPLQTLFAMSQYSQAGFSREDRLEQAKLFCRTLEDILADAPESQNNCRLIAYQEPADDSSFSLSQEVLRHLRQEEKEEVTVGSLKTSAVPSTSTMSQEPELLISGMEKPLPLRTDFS

In assay [2] the target is T2, WT STING. The assay can be described thus: Differential Scanning Fluorimetry with WT STING. The assay is classed as binding. Details: truncated human WT STING or AQ STING (amino acid residues 140-343); 8xHis (N, cleaved yes); SUMO (N, cleaved yes); made in house; host or cells: E. coli Rosetta-gami B (DE3). Conditions: thermal shift vs STING apoprotein; 150 μM CDN; 0.1 mg/ml truncated human WT STING; SYPRO Orange; read-out: DSF ΔTm (° C.) WT STING. How it is done:
as §1, §2, §3, §4, §5
Target sequence in this assay (Q86WV6 140-343 H232R): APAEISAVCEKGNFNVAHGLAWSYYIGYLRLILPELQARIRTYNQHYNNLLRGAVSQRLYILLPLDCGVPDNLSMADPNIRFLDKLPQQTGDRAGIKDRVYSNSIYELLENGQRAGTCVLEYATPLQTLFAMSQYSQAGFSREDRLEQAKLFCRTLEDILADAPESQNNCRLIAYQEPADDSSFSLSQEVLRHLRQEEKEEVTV

For orientation: ΔTm means the change in melting temperature against a reference sample. What is called EC50 is the midpoint of the concentration-response curve.

T1 sequence (Q86WV6 140-343 G230A/H232R/R293Q): as the sequence (Q86WV6 140-343 H232R) above, with G91A, R154Q counted along it

In the case of `Nc1ncc2ncn([C@@H]3O[C@@H]4COP(=O)(O)O[C@@H]5[C@H](O)[C@@H](OCP(=O)(O)O[C@H]4[C@H]3O)O[C@H]5n3cnc4c(=O)[nH]c(N)nc43)c2n1` [Compound 48, (1R,6R,8R,9R,10S,15R,17R,18S)-17-(2-amino-6-oxo-6,9-dihydro-1H-purin-9-yl)-8-(2-amino-9H-purin-9-yl)-3,9,12,18-tetrahydroxy-2,4,7,11,14,16-hexaoxa-3λ^5,12λ^5-diphosphatricyclo[13.2.1.0^6,10]octadecane-3,12-dione], the figures for the ΔTm at 150 µM on AQ STING (G230A-R293Q) and on WT STING [2] were 11.6 °C and 3.9 °C, respectively. Besides, at WT STING [1], the EC50 is 0.17 µM.
For `CNc1ncnc2c1ncn2[C@@H]1O[C@@H]2COP(=O)(O)O[C@@H]3[C@H](O)[C@@H](OCP(=O)(O)O[C@H]2[C@H]1O)O[C@H]3n1cnc2c(=O)[nH]c(N)nc21` [Compound 49, (1R,6R,8R,9R,10S,15R,17R,18S)-17-(2-amino-6-oxo-6,9-dihydro-1H-purin-9-yl)-3,9,12,18-tetrahydroxy-8-[6-(methylamino)-9H-purin-9-yl]-2,4,7,11,14,16-hexaoxa-3λ^5,12λ^5-diphosphatricyclo[13.2.1.0^6,10]octadecane-3,12-dione] the same measures were 9.3 °C, 3.8 °C and 0.15 µM.
For `Nc1nc(N)c2ncn([C@@H]3O[C@@H]4COP(=O)(O)O[C@@H]5[C@H](O)[C@@H](OCP(=O)(O)O[C@H]4[C@H]3O)O[C@H]5n3cnc4c(=O)[nH]c(N)nc43)c2n1` [Compound 50, (1R,6R,8R,9R,10S,15R,17R,18S)-17-(2-amino-6-oxo-6,9-dihydro-1H-purin-9-yl)-8-(2,6-diamino-9H-purin-9-yl)-3,9,12,18-tetrahydroxy-2,4,7,11,14,16-hexaoxa-3λ^5,12λ^5-diphosphatricyclo[13.2.1.0^6,10]octadecane-3,12-dione], in that order: 17.5 °C, 11.9 °C and 0.02 µM.
`CSc1ncnc2c1ncn2[C@@H]1O[C@@H]2COP(=O)(O)O[C@@H]3[C@H](O)[C@@H](OCP(=O)(O)O[C@H]2[C@H]1O)O[C@H]3n1cnc2c(=O)[nH]c(N)nc21` [Compound 51, (1R,6R,8R,9R,10S,15R,17R,18S)-17-(2-amino-6-oxo-6,9-dihydro-1H-purin-9-yl)-3,9,12,18-tetrahydroxy-8-[6-(methylsulfanyl)-9H-purin-9-yl]-2,4,7,11,14,16-hexaoxa-3λ^5,12λ^5-diphosphatricyclo[13.2.1.0^6,10]octadecane-3,12-dione]: the ΔTm at 150 µM on AQ STING (G230A-R293Q) stood at 15.9 °C; on WT STING [2] it was 8.6 °C. In addition, the EC50 at WT STING [1] is 0.01 µM.
For `Nc1nc2c(ncn2[C@@H]2O[C@@H]3OCP(=O)(O)O[C@H]4[C@H](O)[C@H](n5cnc6c(N)nc(F)nc65)O[C@@H]4COP(=O)(O)O[C@@H]2[C@@H]3O)c(=O)[nH]1` [Compound 52, (1R,6R,8R,9S,10S,15R,17R,18S)-8-(6-amino-2-fluoro-9H-purin-9-yl)-17-(2-amino-6-oxo-6,9-dihydro-1H-purin-9-yl)-3,9,12,18-tetrahydroxy-2,4,7,11,14,16-hexaoxa-3λ^5,12λ^5-diphosphatricyclo[13.2.1.0^6,10]octadecane-3,12-dione] the same measures were 20.1 °C, 13.9 °C and 0.03 µM.
`C#Cc1cn([C@@H]2O[C@@H]3COP(=O)(O)O[C@@H]4[C@H](O)[C@@H](OCP(=O)(O)O[C@H]3[C@H]2O)O[C@H]4n2cnc3c(=O)[nH]c(N)nc32)c2ncnc(N)c12` [Compound 53, (1R,6R,8R,9R,10S,15R,17R,18S)-8-{4-amino-5-ethynyl-7H-pyrrolo[2,3-d]pyrimidin-7-yl}-17-(2-amino-6-oxo-6,9-dihydro-1H-purin-9-yl)-3,9,12,18-tetrahydroxy-2,4,7,11,14,16-hexaoxa-3λ^5,12λ^5-diphosphatricyclo[13.2.1.0^6,10]octadecane-3,12-dione]: the results for the ΔTm at 150 µM at AQ STING (G230A-R293Q) and on WT STING [2] were 12.9 °C and 6.6 °C, respectively. Besides, at WT STING [1], the EC50 stood at 0.04 µM.
`Nc1nc2c(ncn2[C@@H]2O[C@@H]3OCP(=O)(O)O[C@H]4[C@@H](F)[C@H](n5cnc6c(N)nc(F)nc65)O[C@@H]4COP(=O)(O)O[C@@H]2[C@@H]3O)c(=O)[nH]1` [Compound 54, (1R,6R,8R,9R,10R,15R,17R,18S)-8-(6-amino-2-fluoro-9H-purin-9-yl)-17-(2-amino-6-oxo-6,9-dihydro-1H-purin-9-yl)-9-fluoro-3,12,18-trihydroxy-2,4,7,11,14,16-hexaoxa-3λ^5,12λ^5-diphosphatricyclo[13.2.1.0^6,10]octadecane-3,12-dione]: the values for the ΔTm at 150 µM at AQ STING (G230A-R293Q) and on WT STING [2] were 19.9 °C and 13 °C, respectively. Moreover, on WT STING [1], the EC50 was 0.012 µM.
As for `Nc1nc2c(ncn2[C@@H]2O[C@@H]3OCP(=O)(O)O[C@H]4C[C@H](n5cnc6c(N)ncnc65)O[C@@H]4COP(=O)(O)O[C@@H]2[C@@H]3O)c(=O)[nH]1` [Compound 55, (1R,6R,8R,10S,15R,17R,18S)-17-(2-amino-6-oxo-6,9-dihydro-1H-purin-9-yl)-8-(6-amino-9H-purin-9-yl)-3,12,18-trihydroxy-2,4,7,11,14,16-hexaoxa-3λ^5,12λ^5-diphosphatricyclo[13.2.1.0^6,10]octadecane-3,12-dione], the ΔTm at 150 µM on AQ STING (G230A-R293Q) came to 22.9 °C; at WT STING [2], 15.2 °C. For the same compound, the EC50 on WT STING [1] worked out at 0.01 µM.
Take `Nc1nc2c(ncn2[C@@H]2O[C@@H]3OCP(=O)(O)OC4C[C@H](n5cnc6c(N)nc(Cl)nc65)O[C@@H]4COP(=O)(O)OC2C3O)c(=O)[nH]1` (stereo partly drawn) [Compound 56, (1R,6R,8R,105,15R,17R,185)-8-(6-amino-2-chloro-9H-purin-9-yl)-17-(2-amino-6-oxo-6,9-dihydro-1H-purin-9-yl)-3,12,18-trihydroxy-2,4,7,11,14,16-hexaoxa-3λ^5,12λ^5-diphosphatricyclo[13.2.1.0^6,10]octadecane-3,12-dione]: the results for the ΔTm at 150 µM on AQ STING (G230A-R293Q) and on WT STING [2] were 16.5 °C and 9.5 °C, respectively. Moreover, the EC50 at WT STING [1] was determined as 0.05 µM.

The values above are taken from patent US11203610B2, “2′3′ cyclic dinucleotides with phosphonate bond activating the sting adaptor protein” (INSTITUTE OF ORGANIC CHEMISTRY AND BIOCHEMISTRY ASCR, V.V.I., priority 2017, dated 2021).
